Tests used:
[1] = Crystal
[2] = Molar enthalpy of transition or fusion; settings: Crystal
[3] = molar heat capacity at constant pressure; settings: 101.33 kPa

O=Cc1ccc([N+](=O)[O-])cc1[N+](=O)[O-] [2,4-dinitrobenzaldehyde]
Settings	Molar enthalpy of transition or fusion [kcal/mol]	Triple point temperature [K]
[1]	–	344.91
[2]	5.06	–

[3]
Settings	molar heat capacity at constant pressure [J/K/mol]
78.06 K, Crystal	18.67
80 K, Crystal	19.77
80.91 K, Crystal	20.32
82.54 K, Crystal	21.07
85.26 K, Crystal	22.24
87.46 K, Crystal	22.9
89.5 K, Crystal	23.64
91.38 K, Crystal	24.46
93.21 K, Crystal	24.83
94.98 K, Crystal	25.29
96.7 K, Crystal	25.84
98.42 K, Crystal	26.88
100.08 K, Crystal	26.98
101.76 K, Crystal	28.11
103.39 K, Crystal	28.44
105 K, Crystal	28.62
106.58 K, Crystal	28.9
108.14 K, Crystal	29.07
109.68 K, Crystal	30.37
111.2 K, Crystal	30.49
112.69 K, Crystal	30.46
114.18 K, Crystal	31.08
115.64 K, Crystal	31.43
117.09 K, Crystal	32.01
118.49 K, Crystal	32.5
119.86 K, Crystal	32.88
121.24 K, Crystal	33.37
122.59 K, Crystal	33.47
123.93 K, Crystal	34.53
125.27 K, Crystal	34.53
126.61 K, Crystal	35.11
127.96 K, Crystal	35.79
129.3 K, Crystal	36.37
130.69 K, Crystal	36.18
132.09 K, Crystal	36.27
133.43 K, Crystal	37.34
134.81 K, Crystal	37.63
136.17 K, Crystal	37.14
137.59 K, Crystal	37.92
138.97 K, Crystal	37.37
140.34 K, Crystal	37.47
141.69 K, Crystal	37.08
143.04 K, Crystal	37.04
144.37 K, Crystal	37.54
145.68 K, Crystal	37.82
146.97 K, Crystal	37.82
148.25 K, Crystal	38.92
149.52 K, Crystal	39.16
150.78 K, Crystal	38.26
152.03 K, Crystal	39.82
153.25 K, Crystal	40.53
154.49 K, Crystal	40.73
155.72 K, Crystal	40.92
156.96 K, Crystal	41.6
158.19 K, Crystal	41.6
159.41 K, Crystal	42.39
160.67 K, Crystal	43.2
161.9 K, Crystal	43.2
163.15 K, Crystal	43.8
164.37 K, Crystal	44.11
165.6 K, Crystal	44.7
166.79 K, Crystal	45.28
167.97 K, Crystal	45.57
169.2 K, Crystal	45.95
171.64 K, Crystal	46.17
175.32 K, Crystal	46.7
178.53 K, Crystal	47.5
181.57 K, Crystal	47.76
184.51 K, Crystal	49.49
187.41 K, Crystal	49.49
190.27 K, Crystal	51.22
193.04 K, Crystal	52.12
195.57 K, Crystal	52.73
198.42 K, Crystal	54.38
201.09 K, Crystal	55.42
202.7 K, Crystal	55.05
206.17 K, Crystal	56.4
208.82 K, Crystal	57.15
211.47 K, Crystal	56.9
214.01 K, Crystal	58.62
216.52 K, Crystal	60.85
219.02 K, Crystal	60.11
221.6 K, Crystal	60.6
224.29 K, Crystal	61.84
226.79 K, Crystal	62.82
229.3 K, Crystal	62.82
231.81 K, Crystal	64.06
234.37 K, Crystal	65.17
236.8 K, Crystal	66.36
239.16 K, Crystal	67.38
241.63 K, Crystal	68.9
243.96 K, Crystal	70.6
246.15 K, Crystal	72.46
248.51 K, Crystal	72.63
250.87 K, Crystal	73.64
253.13 K, Crystal	75.85
255.45 K, Crystal	78.05
257.75 K, Crystal	79.41
260 K, Crystal	80.42
262.29 K, Crystal	81.1
265.37 K, Crystal	83.47
266.84 K, Crystal	84.66
269.06 K, Crystal	86.52
271.28 K, Crystal	88.55
273.5 K, Crystal	90.93
275.72 K, Crystal	93.3
277.9 K, Crystal	94.99
280.12 K, Crystal	96.35
282.24 K, Crystal	98.88
284.45 K, Crystal	100.75
286.53 K, Crystal	101.94
288.75 K, Crystal	103.12
290.86 K, Crystal	105.15
293.05 K, Crystal	105.66
295.09 K, Crystal	108.2
297.17 K, Crystal	110.92
299.24 K, Crystal	112.78
301.25 K, Crystal	116
303.25 K, Crystal	118.56
305.33 K, Crystal	120.3
307.3 K, Crystal	122.62
309.27 K, Crystal	124.17
311.25 K, Crystal	125.72
313.22 K, Crystal	128.04
315.24 K, Crystal	130.3
317.17 K, Crystal	132.69
319.12 K, Crystal	135.33
321.07 K, Crystal	136.59
322.98 K, Crystal	138.88
324.91 K, Crystal	141.63
326.82 K, Crystal	144.41
328.67 K, Crystal	147.92
330.55 K, Crystal	151.7
332.43 K, Crystal	154.77
334.19 K, Crystal	158.54
335.92 K, Crystal	161.76
337.65 K, Crystal	165.54
339.38 K, Crystal	169.32
341.03 K, Crystal	173.09
348.1 K, Liquid	300.29
349.69 K, Liquid	307.08
351.29 K, Liquid	313.48
352.84 K, Liquid	317.48
354.37 K, Liquid	327.47
355.87 K, Liquid	334.28
357.34 K, Liquid	342.27
358.75 K, Liquid	344.27
360.22 K, Liquid	349.07
361.51 K, Liquid	354.26
362.75 K, Liquid	357.86
363.93 K, Liquid	367.87
365.07 K, Liquid	373.86
366.13 K, Liquid	381.06
367.12 K, Liquid	389.86
